Test results from the NIST ThermoML archive (doi:10.1016/j.jct.2009.02.008).
Several values for one entry are separate records, joined by “and”; a condition that tells them apart may be missing. Equal values may be shown once.

What was measured:
[1] = for vapor or sublimation pressure: Torsion effusion method
[2] = Molar enthalpy of transition or fusion; conditions: Crystal; DSC

O=C(O)c1ccc([N+](=O)[O-])c([N+](=O)[O-])c1 [3,4-dinitrobenzoic acid]
[1]
Conditions | Normal melting temperature [°C] | vapor or sublimation pressure
366 K, Crystal | – | 6e-05 kPa
367 K, Crystal | – | 7.5e-05 kPa
368 K, Crystal | – | 7.5e-05 kPa
369 K, Crystal | – | 9e-05 kPa
370 K, Crystal | – | 0.000105 kPa
370.5 K, Crystal | – | 0.000105 kPa
373 K, Crystal | – | 0.00015 kPa
373.5 K, Crystal | – | 0.00015 kPa
374 K, Crystal | – | 0.00015 kPa
374.5 K, Crystal | – | 0.00015 kPa
376 K, Crystal | – | 0.00018 kPa
378 K, Crystal | – | 0.00024 kPa
379 K, Crystal | – | 0.00027 kPa
380 K, Crystal | – | 0.00027 kPa
382 K, Crystal | – | 0.00039 kPa and 0.00036 kPa
383 K, Crystal | – | 0.00039 kPa
383.5 K, Crystal | – | 0.00039 kPa
384.5 K, Crystal | – | 0.00048 kPa
385 K, Crystal | – | 0.000511 kPa
386.5 K, Crystal | – | 0.000541 kPa
387 K, Crystal | – | 0.000571 kPa
387.5 K, Crystal | – | 0.000631 kPa
390.5 K, Crystal | – | 0.000841 kPa
391.5 K, Crystal | – | 0.000901 kPa
392 K, Crystal | – | 0.000991 kPa
393 K, Crystal | – | 0.001171 kPa
393.5 K, Crystal | – | 0.001111 kPa
396 K, Crystal | – | 0.001502 kPa and 0.001441 kPa
396.5 K, Crystal | – | 0.001622 kPa
397 K, Crystal | – | 0.001652 kPa
398.5 K, Crystal | – | 0.001862 kPa
399.3 K, Crystal | – | 0.001952 kPa
504.2 K, Liquid | – | 1.398 kPa
506.3 K, Liquid | – | 1.467 kPa and 1.527 kPa
508.1 K, Liquid | – | 1.661 kPa
509.3 K, Liquid | – | 1.686 kPa and 1.713 kPa
510.3 K, Liquid | – | 1.855 kPa
511.2 K, Liquid | – | 1.855 kPa
512.2 K, Liquid | – | 2.062 kPa and 1.928 kPa
512.6 K, Liquid | – | 2.021 kPa
513.3 K, Liquid | – | 2.078 kPa
514 K, Liquid | – | 2.144 kPa
514.2 K, Liquid | – | 2.189 kPa
514.5 K, Liquid | – | 2.164 kPa
515.2 K, Liquid | – | 2.237 kPa
516.3 K, Liquid | – | 2.326 kPa and 2.215 kPa
517.3 K, Liquid | – | 2.424 kPa
517.4 K, Liquid | – | 2.494 kPa
517.5 K, Liquid | – | 2.396 kPa
518.2 K, Liquid | – | 2.524 kPa and 2.484 kPa
518.3 K, Liquid | – | 2.448 kPa
519.1 K, Liquid | – | 2.585 kPa
519.3 K, Liquid | – | 2.646 kPa
519.5 K, Liquid | – | 2.554 kPa
520 K, Liquid | – | 2.619 kPa
520.2 K, Liquid | – | 2.672 kPa and 2.772 kPa and 2.726 kPa
521.2 K, Liquid | – | 2.916 kPa
521.3 K, Liquid | – | 2.807 kPa
521.7 K, Liquid | – | 2.815 kPa
522.1 K, Liquid | – | 2.909 kPa and 2.971 kPa
522.2 K, Liquid | – | 2.978 kPa
523.1 K, Liquid | – | 3.104 kPa
523.3 K, Liquid | – | 3.095 kPa and 3.121 kPa
523.5 K, Liquid | – | 3.122 kPa
524.1 K, Liquid | – | 3.125 kPa
524.2 K, Liquid | – | 3.059 kPa and 3.181 kPa
524.4 K, Liquid | – | 3.199 kPa
525 K, Liquid | – | 3.353 kPa
525.2 K, Liquid | – | 3.39 kPa
525.5 K, Liquid | – | 3.335 kPa
526 K, Liquid | – | 3.494 kPa
526.3 K, Liquid | – | 3.406 kPa and 3.328 kPa and 3.288 kPa
526.5 K, Liquid | – | 3.316 kPa
527.1 K, Liquid | – | 3.585 kPa
527.3 K, Liquid | – | 3.551 kPa and 3.644 kPa
528.1 K, Liquid | – | 3.726 kPa and 3.627 kPa
528.2 K, Liquid | – | 3.635 kPa
528.3 K, Liquid | – | 3.831 kPa
529.2 K, Liquid | – | 3.887 kPa
529.4 K, Liquid | – | 3.764 kPa
529.6 K, Liquid | – | 3.879 kPa and 3.918 kPa
530.1 K, Liquid | – | 3.984 kPa
530.3 K, Liquid | – | 4.036 kPa and 4.045 kPa
531 K, Liquid | – | 4.159 kPa
531.3 K, Liquid | – | 4.262 kPa and 4.216 kPa
532.2 K, Liquid | – | 4.348 kPa [middle of 4 runs]
533.2 K, Liquid | – | 4.481 kPa
533.3 K, Liquid | – | 4.576 kPa and 4.47 kPa
534.3 K, Liquid | – | 4.611 kPa and 4.532 kPa
535.4 K, Liquid | – | 4.812 kPa
535.7 K, Liquid | – | 4.867 kPa
536.2 K, Liquid | – | 4.889 kPa
536.5 K, Liquid | – | 4.992 kPa
537.3 K, Liquid | – | 5.217 kPa
538.3 K, Liquid | – | 5.356 kPa
539.3 K, Liquid | – | 5.685 kPa
540.6 K, Liquid | – | 5.862 kPa
Crystal, DTA | 165.1 | –

Conditions | Molar enthalpy of transition or fusion [kJ/mol]
[2] | 24.6
